{
  "source": "patent US6207666A",
  "about": "“Method for treating a patient having precancerous lesion with 4-phenylphthalazine derivatives” (Cell Pathways, Inc., priority 1998, dated 2001)",
  "key": {"[1]": {"test_system": "mammary lesions (mouse mammary gland organ culture)", "assay": "DMBA-induced mammary lesions in mouse mammary gland organ culture", "format": "cell-based, mouse (female BALB/c)", "details": "for Glands with Lesions: vehicle 11 of 15; for Percent Incidence (mammary lesions): vehicle 73.33", "procedure": "Compound No. 17 was also tested for its ability to inhibit the incidence of mammary lesions in an organ culture system. This mouse mammary gland organ culture technique has been successfully used by other investigators to study the effects of known cancer-chemopreventative agents such as retinoids and selenium.\nFemale BALB/c mice, 28 days old, were treated for nine days with a combination of […] of estradiol and 1 mg of progesterone daily, in order to prime the glands to be responsive to hormones in vitro. The animals were sacrificed and thoracic mammary glands were excised aseptically and incubated for ten days in growth media supplemented with growth-promoting hormones: insulin, prolactin, and hydrocortisone, at 5 μg/ml each and aldosterone at 1 μg/ml. A twenty-four hour treatment of 7,12-dimethylbenz(a)anthracene (DMBA, 2 μg/ml) was carried out between days three and four to induce the formation of mammary lesions. Fully developed glands were deprived of prolactin, hydrocortisone, and aldosterone for 14 days, resulting in the regression of the glands but not the mammary lesions.\nIn order to evaluate the effects of Compound No. 17, it was dissolved in DMSO and added to the culture media supplemented for the duration of the culture period. At the end of the culture period, the glands were fixed in 10%. formalin, stained with alum carmine, and mounted on glass slides. The incidence of forming mammary lesions is the ratio of the glands with mammary lesions and glands […]. The incidence of mammary lesions in compound 17 treated glands was compared with that of the untreated glands.\nThe extent of the area occupied by the mammary lesions was quantitated by projecting an image of the gland onto a digitation pad. The area covered by the gland was traced on the pad and considered as 100% of the area. The space covered by each of the unregressed structures was also outlined on the digitization pad and quantitated by the computer."}, "[2]": {"test_system": "human colon carcinoma cell line, HT-29", "assay": "HT-29 tumor cell growth inhibition, Sulforhodamine B (SRB) protein binding assay, six days continuous exposure", "format": "cell-based", "details": "for SRB Binding (A550): vehicle 0.801 ± 0.137", "procedure": "Compound No. 17, 1-(3-chloroanilino)-4-phenylphthalazine, was assayed for its effect on the human colon carcinoma cell line, HT-29 obtained from ATCC, (Rockville, Md.) to ascertain the degree of growth inhibition. Growth inhibition of this cell line is thought to be indicative of a benefit on precancerous lesions and neoplasms. The cell line and growth assay employed for these experiments is well characterized, and is used by the United States National Cancer Institute in its screening program for new anti-cancer drugs.\nDrug stock solutions were made in 100% DMSO then diluted with RPMI media for cell culture testing. All drug solutions were prepared fresh on the day of testing. The cultured cells were obtained at passage #118 and grown in RPMI media supplemented with 5% fetal calf serum, and 2 mM glutamine, 100 U/ml penicillin, 100 U/ml streptomycin, and 0.25 μg/ml amphotericin. The cultures were maintained in a humidified atmosphere of 95% air and 5% CO2 at 37° C. The cultures were passaged at preconfluent densities using a solution of 0.05% trypsin and 0.53 mM EDTA. All experiments involved HT-29 cells between passages 120 and 140. Cells were plated at the following densities to obtain cultures used for the experiments: 500 cells/well for 96 well flat-bottom microtiter plates, 1×10^6 cells per 25 cm^2 flask, or 4×10^6 cells per 75 cm^2 flask.\nTumor cell growth inhibition was assessed using the Sulforhodamine B (SRB) protein binding assay. In this assay, tumor cells were plated in 96-well plates and treated with drug-containing media for six days (continuous exposure). For each plate, 6 wells were designated as no treatment controls, six wells as vehicle (0.1% DMSO) controls, and the remaining wells for drug dilutions with six wells per drug concentration. At the end of the exposure period, the cells were fixed and stained with sulforhodamine B, a protein binding dye. The dye was then solubilized, and the optical density of the resulting solution was determined on a 96-well plate reader. The mean dye intensity of the treated wells was then divided by the mean dye intensity in the control wells (6 wells of each) to determine the effect of the drug on the cells. Dye intensity is proportional to the number of cells or amount of protein per well. The resultant \"percent inhibition\" value then represents the degree of growth inhibition caused by the drug in Table 4 below."}, "HT-29 cells": {"test_system": "HT-29 cells", "assay": "Apoptosis and necrosis by fluorescent microscopy (acridine orange and ethidium bromide) in confluent HT-29 cultures", "format": "cell-based, human", "procedure": "Drug stock solutions were made in 100% DMSO then diluted with RPMI media for cell culture testing. All drug solutions were prepared fresh on the day of testing. The cultured cells were obtained at passage #118 and grown in RPMI media supplemented with 5% fetal calf serum, and 2 mM glutamine, 100 U/ml penicillin, 100 U/ml streptomycin, and 0.25 μg/ml amphotericin. The cultures were maintained in a humidified atmosphere of 95% air and 5% CO2 at 37° C. The cultures were passaged at preconfluent densities using a solution of 0.05% trypsin and 0.53 mM EDTA. All experiments involved HT-29 cells between passages 120 and 140. Cells were plated at the following densities to obtain cultures used for the experiments: 500 cells/well for 96 well flat-bottom microtiter plates, 1×10^6 cells per 25 cm^2 flask, or 4×10^6 cells per 75 cm^2 flask. Apoptosis and necrosis were measured using an assay which allowed for the simultaneous measurement of both types of cell death based on morphological characteristics of apoptotic cells (i.e., condensed chromatin) and membrane permeability. Drug preparation and cell culture conditions were the same as above. Confluent cultures were assayed for apoptosis and necrosis by fluorescent microscopy following labeling with acridine orange and ethidium bromide. Floating and attached cells were collected by trypsinization and washed three times in PBS. One ml aliquots of 1×10^6 cells were centrifuged (300 g). The pellet was resuspended in 25 μl media and 1 μl of a dye mixture containing 100 μg/ml acridine orange and 100 μg/ml ethidium bromide prepared in PBS and mixed gently. Ten μl of mixture was placed on a microscope slide and with a 22 mm^2 coverslip and examined under 40 x dry objectives using epilumination and filter combination. An observer blinded to the identity of the treatments scored at least 100 cells per sample. Apoptotic cells were identified by nuclear condensation of chromatin stained by the acridine orange or ethidium bromide. Necrotic cells were identified by uniform labeling of the cell with ethidium bromide. Data was also obtained, under the same procedure above, for the percent of apoptotic cells induced by treatment with varying concentrations of compound No. 17."}},
  "data": [
    {"smiles": "Clc1cccc(Nc2nnc(-c3ccccc3)c3ccccc23)c1", "note": "[Compound No. 17, 1-(3-Chloroanilino)-4-phenylphthalazine]", "values": [
      {"measurement": "Glands with Lesions", "setting": "[1]; 10 μM, of 13 glands", "value": 7},
      {"measurement": "Percent Incidence (mammary lesions)", "setting": "[1]; 10 μM", "value": 53.85, "unit": "%"},
      {"measurement": "Glands with Lesions", "setting": "[1]; 100 μM, of 15 glands", "value": 4},
      {"measurement": "Percent Incidence (mammary lesions)", "setting": "[1]; 100 μM", "value": 26.67, "unit": "%"},
      {"measurement": "inhibition at 10 µM", "setting": "[1]; Mus musculus, 10 μM, read-out: Percent Inhibition (mammary lesions)", "value": 27, "unit": "%"},
      {"measurement": "inhibition at 100 µM", "setting": "[1]; Mus musculus, 100 μM, read-out: Percent Inhibition (mammary lesions)", "value": 64, "unit": "%"},
      {"measurement": "SRB Binding (A550)", "setting": "[2]; 1 μM", "value": "0.851 ± 0.059"},
      {"measurement": "SRB Binding (A550)", "setting": "[2]; 10 μM", "value": "0.007 ± 0.003"},
      {"measurement": "SRB Binding (A550)", "setting": "[2]; 100 μM", "value": "0.009 ± 0.010"},
      {"measurement": "inhibition at 1 µM", "setting": "[2]; Homo sapiens, 144 h, 1 μM", "value": 0, "unit": "%"},
      {"measurement": "inhibition at 10 µM", "setting": "[2]; Homo sapiens, 144 h, 10 μM", "value": 100, "unit": "%"},
      {"measurement": "inhibition at 100 µM", "setting": "[2]; Homo sapiens, 144 h, 100 μM", "value": 100, "unit": "%"},
      {"measurement": "% Apoptotic Cells", "setting": "HT-29 cells; 1 μM (Table 6), 0 μM gives 4%", "value": 12, "unit": "%"},
      {"measurement": "% Apoptotic Cells", "setting": "HT-29 cells; 5 μM (Table 6), 0 μM gives 4%", "value": 13, "unit": "%"},
      {"measurement": "% Apoptotic Cells", "setting": "HT-29 cells; 10 μM (Table 6), 0 μM gives 4%", "value": 7, "unit": "%"},
      {"measurement": "% Apoptotic Cells", "setting": "HT-29 cells; 25 μM (Table 6), 0 μM gives 4%", "value": 8, "unit": "%"},
      {"measurement": "% Necrotic Cells", "setting": "HT-29 cells; 40 μM, HT-29, vehicle 2%, none 5%", "value": 6, "unit": "%"},
      {"measurement": "% Apoptotic Cells", "setting": "HT-29 cells; 40 μM, HT-29, vehicle 9%, none 7%", "value": 83, "unit": "%"},
      {"measurement": "% Apoptotic Cells", "setting": "HT-29 cells; 50 μM (Table 6), 0 μM gives 4%", "value": 78, "unit": "%"}
    ]}
  ]
}
